# Measured values: US8969544B2, “Combined use of PRAME inhibitors and HDAC inhibitors” (priority 2004, dated 2015)
# Assays:
# RAS^V12-MEFs = experiment: growth of RAS^V12-MEFs in the presence of HDAC inhibitor; format: cell-based, mouse
# Method: In order to address the molecular basis for the selective growth-inhibitory activity of HDACi on cancer cells, we performed a functional genetic screen to identify genes that confer resistance to a small-molecule HDACi, named PXD101 (Plumb et al, 2003). Oncogenic RAS^V12-transformed mouse embryonic fibroblasts (RAS^V12-MEFs) were infected with a high complexity retroviral cDNA expression library derived from human K562 erythroleukemia cells and exposed to 1 μM PXD101 for three to […]. HDACi-resistant colonies appeared at low frequency only after infection with cDNA expression library. Integrated proviruses were mobilized from PXD101-resistant colonies by Moloney virus super-infection as described (Jacobs et al, 2000). After second round selection, cDNA inserts were recovered by PCR and identified by DNA sequence analysis. Using this approach, we identified full-length cDNAs encoding the human melanoma tumour antigen PRAME (PReferentially expressed Antigen in MElanoma (Ikeda et al, 1997) and Retinoic Acid Receptor alpha (RARα) as cDNAs that allow continuous proliferation in the presence of 1 μM PXD101. PRAME also rescues these cells from growth arrest by a related HDACi, Trichostatin A at a concentration of 0.1 μM.
# The observed effect of PRAME on RAR signalling could result from a physical interaction of PRAME with RAR or from more indirect effects. […]
# [1] = system: histone H3 acetylation, p21; experiment: immunoblot for acetyl-H3 and p21 in Ras^V12 MEFs treated with HDACi; format: cell-based, mouse; settings: 1 μM PXD101 for 16 hrs; not prevented by PRAME or RARα expression
# Method: Ras^V12 MEFs were also transduced with PRAME or RARα retrovirus and treated with 1 μM PXD101 for 16 hrs. Extracts were immunoblotted for acetyl-H3, p21, PRAME, RARα and CDK4 (control). […] Cells were lysed in Ripa buffer (50 mM Tris pH 8.0, 150 mM NaCl, 1% NP-40, 0.5% deoxycholic acid, and 0.1% SDS) supplemented with protease inhibitors (Complete; Roche) and […] PMSF and proteins were separated on 10-14% SDS-PAGE gels. Proteins were transferred to polyvinylidine difluoride membranes (Immobilon P, Millipore) and Western blots were probed with the indicated antibodies. For TAP (co-)immunoprecipitations cells were lysed in ELB buffer (0.25 M NaCl, 0.1% NP-40, 50 mM HEPES pH 7.3) supplemented with protease inhibitors and PMSF. Lysates were incubated with IgG-coated sepharose beads (Amersham) to immunoprecipitate TAP and TAP-PRAME (Rigaut et al 1999), indicated as anti-TAP, or with protein A beads and normal mouse serum (mock IP) for 2 hrs, washed, and separated on SDS-PAGE gels.
# [2] = system: F9 mouse embryo carcinoma cells; experiment: RA-induced apoptosis in F9 cells (cleaved caspase 3); format: cell-based; settings: 10^−7 M RA; vector controls, not PRAME transfectants
# Text: RA induces proliferation arrest, differentiation and apoptosis in many cell types. We therefore asked if PRAME expression affected the RA-induced differentiation of F9 mouse embryo carcinoma cells towards parietal endoderm (Strickland and Mandavi, 1978). F9 cells were stably transfected with PRAME or control vector and individual colonies were selected. In the to absence of RA, the morphology of all transfected cells was the some as that of parental F9 cells. However, F9 cells stably transfected with PRAME […] and treated with 10^−7 M RA were resistant to RA-induced morphological differentiation and growth arrest. Apart from differentiating, a fraction of F9 cells treated with RA dies by apoptosis (Atencia et al, 1994). […] We conclude that PRAME expression confers resistance to RA-induced proliferation arrest, differentiation and apoptosis.
# (§1) F9 cells were stably transfected with PRAME or empty vector and resistant cells were differentiated in 10^−7 M RA for 5 days. A375 cells were stably transfected with pRS-PRAME or empty vector and stable clones were cultured according to the 3T3 protocol. Medium with RA was refreshed every 24-48 hrs.
# RARβ and p21 = experiment: immunoblot of RA target genes RARβ and p21 in A375-PRAME^KD cells; format: cell-based, human; settings: 5 μM RA
# Method: (§2) Cells were lysed in Ripa buffer (50 mM Tris pH 8.0, 150 mM NaCl, 1% NP-40, 0.5% deoxycholic acid, and 0.1% SDS) supplemented with protease inhibitors (Complete; Roche) and […] PMSF and proteins were separated on 10-14% SDS-PAGE gels. Proteins were transferred to polyvinylidine difluoride membranes (Immobilon P, Millipore) and Western blots were probed with the indicated antibodies. For TAP (co-)immunoprecipitations cells were lysed in ELB buffer (0.25 M NaCl, 0.1% NP-40, 50 mM HEPES pH 7.3) supplemented with protease inhibitors and PMSF. Lysates were incubated with IgG-coated sepharose beads (Amersham) to immunoprecipitate TAP and TAP-PRAME (Rigaut et al 1999), indicated as anti-TAP, or with protein A beads and normal mouse serum (mock IP) for 2 hrs, washed, and separated on SDS-PAGE gels.
# p21 promoter = experiment: p21 promoter-luciferase reporter in B16 melanoma cells; format: cell-based, mouse; settings: B16 melanoma cells treated with RA; suppressed by PRAME
# Method: (§3) To assess the effect of PRAME knockdown on cell proliferation, we generated stable derivatives of A375 melanoma having shRNA-mediated knockdown of PRAME expression (A375-PRAME^KD). These A375-PRAME^KD cells were cultured for 15 days according to the 3T3 protocol.
# Transfections were carried out using the Lipofectamine reagent (Invitrogen), except for Ras^V12 MEFs and Phoenix cells, which were transfected using calcium phosphate precipitation. RA-based reporter assays were done in DMEM with charcoal-stripped FCS (Hyclone). In reporter assays 0.5 μg of reporter-luciferase, 1 ng CMV-renilla, and 3 μg of the indicated DNA were transfected. RA, PXD101, or TSA was added 24 hrs after transfection and assays were performed 48 hrs after transfection. In knock-down experiments, RA or PXD101 was added 72 hrs after transfection and assays were performed 96 hrs after transfection. Luciferase activities shown represent ratios between luciferase and renilla internal control values.
# RARβ = experiment: immunoblot for endogenous RARβ in F9 cells treated with RA; format: cell-based, mouse; settings: 10^−7 M RA; parental and mock-transfected F9 cells, not PRAME-transfected
# Method: as §2
# A375-PRAME^KD cells = experiment: proliferation of A375-PRAME^KD cells, 3T3 protocol; format: cell-based, human; settings: 15 days, medium with 5 μM RA
# Method: as §3, §1
# A375-PRAMEKD cells = experiment: human melanoma xenograft model, A375-PRAMEKD tumours; format: in vivo, mouse; settings: 5 mg/kg RA p.o. daily, nude mice, PRAMEKD melanomas, vs vehicle
# Method: To examine the role of PRAME in RA-responsiveness in vivo, we used a human melanoma xenograft model. Nude mice were subcutaneously transplanted with parental A375 into one flank and A375-PRAMEKD cells in the opposite flank and the mice were treated p.o. daily with either 5 mg/kg RA or vehicle only, while tumor volumes were measured weekly.
# Female 5-6 week old athymic BALB-C nude mice (nu/nu) were s.c. implanted with 1×10^6 cells bilaterally into the axial regions. Each mouse received A375-PRAMEKD cells in its right flank and control A375 cells in its left flank. Mice were randomized into treatment groups and treated with 5 mg/kg RA or vehicle (ethanol in sunflower oil) p.o. with a 20-gauge intragastric feeding tube daily. Tumor diameter was measured with calipers weekly. The pRS vector which was used to generate A375-PRAMEKD cells is a self-inactivating retroviral vector, to prevent re-activation and spreading of virus (Brummelkamp et al., 2002a; Brummelkamp et al., 2002b). The experiment was performed twice, with n=20 and n=10 mice and results were similar in both experiments.
structure (smiles),measurement,setting,value
"O=C(/C=C/c1cccc(S(=O)(=O)Nc2ccccc2)c1)NO [PXD101, N-hydroxy-3-(3-phenylsulfamoyl-phenyl)-acrylamide]",cell growth,RAS^V12-MEFs; 1 μM PXD101,growth arrest
same,histone H3 acetylation,[1],increase
same,p21 expression,[1],induction
"CC1=C(/C=C/C(C)=C/C=C/C(C)=C/C(=O)O)C(C)(C)CCC1 [RA, All-trans-retinoic acid]",cleaved caspase 3 (apoptosis),[2],apparent in vector controls
same,induction of RA target genes RARβ and p21,RARβ and p21,enhanced
same,p21 promoter-luciferase reporter activity,p21 promoter,activated
same,endogenous RARβ protein expression,RARβ,induced
same,proliferation rates,A375-PRAME^KD cells,"significantly decreased proliferation rates, especially when cultured in the presence of RA"
same,tumor growth,A375-PRAMEKD cells,severely retarded
CC(/C=C/C(=O)NO)=C\[C@@H](C)C(=O)c1ccc(N(C)C)cc1 [Trichostatin A],cell growth,RAS^V12-MEFs; Trichostatin A 0.1 μM,growth arrest
